Measured values: patent publication US20060069132A1, “Azolecarboxamide herbicides” (priority 2004, published 2006)

What was measured:
[1] = test system: pigweed; assay: Test B pre-/postemergence herbicide test; format: in vivo, Amaranthus retroflexus; conditions: for Plant response rating (0 to 100 scale), Pigweed: 0 is no effect, 100 is complete control, preemergence
Outline: (§1)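 Test chemicals in a non-phytotoxic solvent mixture with surfactant were applied preemergence to seeded species and postemergence to plants 2-18 cm tall (1- to 4-leaf stage); rice and barnyardgrass were also tested in a flooded paddy at the 2-leaf stage. Visual rating versus controls after 13-15 days in greenhouse, scale 0 (no effect) to 100 (complete control).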

[2] = test system: barnyardgrass; assay: Test B pre-/postemergence herbicide test; format: in vivo, Echinochloa crus-galli; conditions: for Plant response rating (0 to 100 scale), Barnyardgrass: 0 is no effect, 100 is complete control, preemergence; for Barnyardgrass plant response rating: Postemergence, scale 0 (no effect) to 100 (complete control)
Outline: (§2)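 Seeds were planted and treated preemergence with compounds formulated in a non-phytotoxic solvent mixture containing surfactant, while plants at the 1- to 4-leaf stage (2 to 18 cm) received postemergence sprays. Flooded paddy plants were grown to the 2-leaf stage. After 13 to 15 days in a greenhouse, injury was visually rated 0–100 against untreated controls.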

[3] = test system: giant foxtail; assay: Test B pre-/postemergence herbicide test; format: in vivo, Setaria faberi; conditions: for Plant response rating (0 to 100 scale), Foxtail, Giant: 0 is no effect, 100 is complete control, preemergence
Outline: as §1

[4] = test system: morningglory; assay: Test B pre-/postemergence herbicide test; format: in vivo, Ipomoea coccinea; conditions: for Plant response rating (0 to 100 scale), Morningglory: 0 is no effect, 100 is complete control, preemergence
Outline: as §2

[5] = test system: lambsquarters; assay: Test B pre-/postemergence herbicide test; format: in vivo, Chenopodium album; conditions: for Plant response rating (0 to 100 scale), Lambsquarters: 0 is no effect, 100 is complete control, preemergence
Outline: as §1

[6] = test system: cocklebur; assay: Test B pre-/postemergence herbicide test; format: in vivo, Xanthium strumarium; conditions: for Plant response rating (0 to 100 scale), Cocklebur: 0 is no effect, 100 is complete control, preemergence
Outline: as §2

[7] = test system: barnyardgrass; assay: Test B flooded paddy test; format: in vivo, Echinochloa crus-galli; conditions: 1000 g ai/ha, scale 0 to 100 (0 no effect, 100 complete control)
Outline: (§3)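 Postemergence plants were sprayed with formulated test chemicals at 2 to 18 cm height (1- to 4-leaf stage); paddy species were grown to the 2-leaf stage. After 13 to 15 days in a greenhouse, injury was rated visually against untreated controls on a 0–100 scale (0 = no effect, 100 = complete control).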

[8] = test system: blackgrass; assay: Test B postemergence herbicide test; format: in vivo, Alopecurus myosuroides
Outline: as §3

[9] = test system: wild oat; assay: Test B postemergence herbicide test; format: in vivo, Avena fatua
Outline: (§4)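 Greenhouse test; postemergence application to plants at 1–4 leaves (2–18 cm); paddy species at 2 leaves; evaluated visually vs controls at 13–15 days; scale 0–100 (100 = complete control).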

[10] = test system: velvetleaf; assay: Test B pre-/postemergence herbicide test; format: in vivo, Abutilon theophrasti; conditions: for Plant response rating (0 to 100 scale), Velvetleaf: 0 is no effect, 100 is complete control, preemergence
Outline: as §1

[11] = test system: wheat; assay: Test B postemergence herbicide test; format: in vivo, Triticum aestivum; design: key to Wheat plant response rating: 0 = no effect, 100 = complete control
Outline: as §4

[12] = test system: Surinam grass; assay: Test B pre-/postemergence herbicide test; format: in vivo, Urochloa decumbens; conditions: for Plant response rating (0 to 100 scale), Surinam Grass: 0 is no effect, 100 is complete control, preemergence
Outline: as §1

[13] = test system: small flower umbrella sedge; assay: Test B flooded paddy test; format: in vivo, Cyperus difformis; conditions: 1000 g ai/ha, scale 0 to 100 (0 no effect, 100 complete control)
Outline: as §3

[14] = test system: large crabgrass; assay: Test B pre-/postemergence herbicide test; format: in vivo, Digitaria sanguinalis; conditions: for Plant response rating (0 to 100 scale), Crabgrass, Large: 0 is no effect, 100 is complete control, preemergence
Outline: as §1

[15] = test system: ducksalad; assay: Test B flooded paddy test; format: in vivo, Heteranthera limosa; conditions: 1000 g ai/ha, scale 0 to 100 (0 no effect, 100 complete control)
Outline: as §3

[16] = test system: rice; assay: Test B flooded paddy test; format: in vivo, Oryza sativa; conditions: 1000 g ai/ha, scale 0 to 100 (0 no effect, 100 complete control)
Outline: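 Paddy species grown to the 2-leaf stage under flooding; blackgrass sprayed postemergence at 2–18 cm (1- to 4-leaf stage). Plants kept in a greenhouse for 13 to 15 days, then visually rated against controls on 0 (no effect) to 100 (complete control).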

[17] = test system: corn; assay: Test B pre-/postemergence herbicide test; format: in vivo, Zea mays; conditions: for Plant response rating (0 to 100 scale), Corn: 0 is no effect, 100 is complete control, preemergence
Outline: as §1

[18] = Postemergence, 500 g ai/ha, scale 0 (no effect) to 100 (complete control)
[19] = postemergence, 125 g ai/ha, scale 0 to 100
[20] = 500 g ai/ha, scale 0 to 100, 0 no effect, 100 complete control, preemergence

SMILES: Cc1nn(C(C)(C)C)nc1C(=O)Nc1cc(C(=O)N(C)C)ccn1 [Compound 423]
- Plant response rating (0 to 100 scale), Pigweed ([1]; 125 g ai/ha): 100
- Pigweed plant response rating [1, 18]: 60
- Pigweed plant response rating [1, 19]: 40
- Plant response rating (0 to 100 scale), Barnyardgrass ([2]; 125 g ai/ha): 90
- Barnyardgrass plant response rating ([2]; 125 g ai/ha): 10
- Barnyardgrass plant response rating ([2]; 500 g ai/ha): 30
- Plant response rating (0 to 100 scale), Foxtail, Giant ([3]; 125 g ai/ha): 90
- Foxtail, Giant plant response rating [3, 18]: 30
- Foxtail, Giant plant response rating [3, 19]: 20
- Plant response rating (0 to 100 scale), Morningglory ([4]; 125 g ai/ha): 30
- Morningglory plant response rating [4, 18]: 80
- Morningglory plant response rating [4, 19]: 40
- Plant response rating (0 to 100 scale), Lambsquarters ([5]; 125 g ai/ha): 100
- Lambsquarters plant response rating [5, 18]: 70
- Lambsquarters plant response rating [5, 19]: 50
- Plant response rating (0 to 100 scale), Cocklebur ([6]; 125 g ai/ha): 20
- Cocklebur plant response rating [6, 18]: 30
- Cocklebur plant response rating [6, 19]: 10
- Barnyardgrass plant response rating [7]: 80
- Blackgrass plant response rating [8, 18]: 60
- Blackgrass plant response rating [8, 19]: 30
- Oat, Wild plant response rating [9, 18]: 30
- Oat, Wild plant response rating [9, 19]: 0
- Plant response rating (0 to 100 scale), Velvetleaf ([10]; 125 g ai/ha): 90
- Velvetleaf plant response rating [10, 18]: 50
- Velvetleaf plant response rating [10, 19]: 40
- Wheat plant response rating [11, 20]: 100
- Wheat plant response rating [11, 18]: 0
- Wheat plant response rating [11, 19]: 0
- Plant response rating (0 to 100 scale), Surinam Grass ([12]; 125 g ai/ha): 90
- Surinam Grass plant response rating [12, 18]: 30
- Surinam Grass plant response rating [12, 19]: 10
- Sedge, Umbrella plant response rating [13]: 70
- Plant response rating (0 to 100 scale), Crabgrass, Large ([14]; 125 g ai/ha): 100
- Crabgrass, Large plant response rating [14, 18]: 50
- Crabgrass, Large plant response rating [14, 19]: 10
- Ducksalad plant response rating [15]: 50
- Rice plant response rating [16]: 60
- Plant response rating (0 to 100 scale), Corn ([17]; 125 g ai/ha): 30
- Corn plant response rating [17, 18]: 20
- Corn plant response rating [17, 19]: 10

SMILES: CCNC(=O)c1ccnc(NC(=O)c2nn(C(C)(C)C)nc2C)c1 [Compound 424]
- Plant response rating (0 to 100 scale), Pigweed ([1]; 125 g ai/ha): 90
- Pigweed plant response rating [1, 18]: 60
- Pigweed plant response rating [1, 19]: 30
- Plant response rating (0 to 100 scale), Barnyardgrass ([2]; 125 g ai/ha): 20
- Barnyardgrass plant response rating ([2]; 125 g ai/ha): 10
- Barnyardgrass plant response rating ([2]; 500 g ai/ha): 30
- Plant response rating (0 to 100 scale), Foxtail, Giant ([3]; 125 g ai/ha): 20
- Foxtail, Giant plant response rating [3, 18]: 30
- Foxtail, Giant plant response rating [3, 19]: 20
- Plant response rating (0 to 100 scale), Morningglory ([4]; 125 g ai/ha): 10
- Morningglory plant response rating [4, 18]: 70
- Morningglory plant response rating [4, 19]: 30
- Plant response rating (0 to 100 scale), Lambsquarters ([5]; 125 g ai/ha): 70
- Lambsquarters plant response rating [5, 18]: 70
- Lambsquarters plant response rating [5, 19]: 40
- Plant response rating (0 to 100 scale), Cocklebur ([6]; 125 g ai/ha): 0
- Cocklebur plant response rating [6, 18]: 30
- Cocklebur plant response rating [6, 19]: 20
- Barnyardgrass plant response rating [7]: 40
- Blackgrass plant response rating [8, 18]: 50
- Blackgrass plant response rating [8, 19]: 0
- Oat, Wild plant response rating [9, 18]: 0
- Oat, Wild plant response rating [9, 19]: 0
- Plant response rating (0 to 100 scale), Velvetleaf ([10]; 125 g ai/ha): 20
- Velvetleaf plant response rating [10, 18]: 30
- Velvetleaf plant response rating [10, 19]: 30
- Wheat plant response rating [11, 20]: 50
- Wheat plant response rating [11, 18]: 0
- Wheat plant response rating [11, 19]: 0
- Plant response rating (0 to 100 scale), Surinam Grass ([12]; 125 g ai/ha): 30
- Surinam Grass plant response rating [12, 18]: 30
- Surinam Grass plant response rating [12, 19]: 20
- Sedge, Umbrella plant response rating [13]: 70
- Plant response rating (0 to 100 scale), Crabgrass, Large ([14]; 125 g ai/ha): 90
- Crabgrass, Large plant response rating [14, 18]: 30
- Crabgrass, Large plant response rating [14, 19]: 10
- Ducksalad plant response rating [15]: 70
- Rice plant response rating [16]: 20
- Plant response rating (0 to 100 scale), Corn ([17]; 125 g ai/ha): 0
- Corn plant response rating [17, 18]: 10
- Corn plant response rating [17, 19]: 0

SMILES: CCN(CC)C(=O)c1ccnc(NC(=O)c2nn(C(C)(C)C)nc2C)c1 [Compound 425]
- Plant response rating (0 to 100 scale), Pigweed ([1]; 125 g ai/ha): 70
- Pigweed plant response rating [1, 18]: 70
- Pigweed plant response rating [1, 19]: 50
- Plant response rating (0 to 100 scale), Barnyardgrass ([2]; 125 g ai/ha): 10
- Barnyardgrass plant response rating ([2]; 125 g ai/ha): 10
- Barnyardgrass plant response rating ([2]; 500 g ai/ha): 20
- Plant response rating (0 to 100 scale), Foxtail, Giant ([3]; 125 g ai/ha): 20
- Foxtail, Giant plant response rating [3, 18]: 30
- Foxtail, Giant plant response rating [3, 19]: 20
- Plant response rating (0 to 100 scale), Morningglory ([4]; 125 g ai/ha): 0
- Morningglory plant response rating [4, 18]: 80
- Morningglory plant response rating [4, 19]: 70
- Plant response rating (0 to 100 scale), Lambsquarters ([5]; 125 g ai/ha): 80
- Lambsquarters plant response rating [5, 18]: 70
- Lambsquarters plant response rating [5, 19]: 60
- Plant response rating (0 to 100 scale), Cocklebur ([6]; 125 g ai/ha): 0
- Cocklebur plant response rating [6, 18]: 20
- Cocklebur plant response rating [6, 19]: 10
- Barnyardgrass plant response rating [7]: 30
- Blackgrass plant response rating [8, 18]: 20
- Blackgrass plant response rating [8, 19]: 0
- Oat, Wild plant response rating [9, 18]: 0
- Oat, Wild plant response rating [9, 19]: 0
- Plant response rating (0 to 100 scale), Velvetleaf ([10]; 125 g ai/ha): 20
- Velvetleaf plant response rating [10, 18]: 30
- Velvetleaf plant response rating [10, 19]: 20
- Wheat plant response rating [11, 20]: 30
- Wheat plant response rating [11, 18]: 0
- Wheat plant response rating [11, 19]: 0
- Plant response rating (0 to 100 scale), Surinam Grass ([12]; 125 g ai/ha): 40
- Surinam Grass plant response rating [12, 18]: 20
- Surinam Grass plant response rating [12, 19]: 10
- Sedge, Umbrella plant response rating [13]: 70
- Plant response rating (0 to 100 scale), Crabgrass, Large ([14]; 125 g ai/ha): 80
- Crabgrass, Large plant response rating [14, 18]: 30
- Crabgrass, Large plant response rating [14, 19]: 20
- Ducksalad plant response rating [15]: 70
- Rice plant response rating [16]: 20
- Plant response rating (0 to 100 scale), Corn ([17]; 125 g ai/ha): 0
- Corn plant response rating [17, 18]: 20
- Corn plant response rating [17, 19]: 10
